Experimental findings from article PMC10249031 (ACS Omega, 2023) are described below.

The test system of data set [1] is A431 cells. As to conditions: 10 μM, 72 h, MTT.
Another data set relates to Vero cells. The data set can be described thus: MTT cytotoxicity assay, Vero normal cell line. The note with it: Primates, 72 h, read-out: IC50 Vero. It counts as cell-based, monkey. Background: Tetrazolium dyes change colour on reduction, which living cells bring about.
The target of another data set is EGFR-TK (Homo sapiens, UniProt P00533). The data set can be described thus: ADP-Glo Kinase Assay, EGFR tyrosine kinase inhibition. It counts as biochemical. The note with it: for EGFR-TK inhibitory activity (screening): at 1 μM, compared to erlotinib, n = 2. In general terms: ADP-Glo first removes unused ATP, then detects ADP through luciferase.
Chain of EGFR-TK (P00533 25-1210): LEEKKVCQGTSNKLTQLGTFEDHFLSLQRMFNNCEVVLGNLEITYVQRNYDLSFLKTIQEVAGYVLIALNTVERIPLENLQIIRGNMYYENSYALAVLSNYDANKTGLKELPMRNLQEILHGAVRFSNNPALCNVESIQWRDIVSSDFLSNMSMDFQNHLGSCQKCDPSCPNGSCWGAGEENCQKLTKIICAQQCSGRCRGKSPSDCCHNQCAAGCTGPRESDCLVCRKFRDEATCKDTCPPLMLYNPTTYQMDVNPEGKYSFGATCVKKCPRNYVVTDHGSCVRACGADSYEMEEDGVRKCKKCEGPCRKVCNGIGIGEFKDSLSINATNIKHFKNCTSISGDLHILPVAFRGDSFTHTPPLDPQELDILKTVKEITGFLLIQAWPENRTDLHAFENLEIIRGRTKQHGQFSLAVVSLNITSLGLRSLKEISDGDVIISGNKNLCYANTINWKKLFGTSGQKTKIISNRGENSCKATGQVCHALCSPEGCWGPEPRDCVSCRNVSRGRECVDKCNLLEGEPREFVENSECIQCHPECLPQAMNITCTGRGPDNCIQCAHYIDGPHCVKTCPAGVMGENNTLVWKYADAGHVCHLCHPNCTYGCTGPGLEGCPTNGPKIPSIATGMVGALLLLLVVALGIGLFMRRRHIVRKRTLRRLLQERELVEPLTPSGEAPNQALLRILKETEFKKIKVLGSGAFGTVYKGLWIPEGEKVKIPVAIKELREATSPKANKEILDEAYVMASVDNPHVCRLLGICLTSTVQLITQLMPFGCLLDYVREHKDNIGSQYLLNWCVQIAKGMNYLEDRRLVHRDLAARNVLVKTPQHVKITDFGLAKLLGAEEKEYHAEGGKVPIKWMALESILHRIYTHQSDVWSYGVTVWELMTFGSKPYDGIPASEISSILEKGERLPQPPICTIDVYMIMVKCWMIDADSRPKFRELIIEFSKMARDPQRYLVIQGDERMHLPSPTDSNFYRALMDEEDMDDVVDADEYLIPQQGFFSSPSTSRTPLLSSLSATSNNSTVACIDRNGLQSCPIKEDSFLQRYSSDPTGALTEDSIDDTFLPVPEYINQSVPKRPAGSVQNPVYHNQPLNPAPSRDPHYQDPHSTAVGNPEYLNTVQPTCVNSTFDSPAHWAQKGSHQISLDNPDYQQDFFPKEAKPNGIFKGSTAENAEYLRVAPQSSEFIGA
The subject of data set [2] is A431 cells. The data set can be described thus: cells. The note with it: Homo sapiens, A-431, 72 h, read-out: IC50 A431.
In a further data set the test system is A549 cells. Nature of the data set: MTT cytotoxicity assay, A549. It counts as cell-based, human. As to conditions: for Cell viability of A549: 10 μM.
[3] abbreviates: Homo sapiens, A549, 72 h, read-out: IC50 A549.

Structures are written as SMILES. Like-named read-outs stand apart in the source and are kept apart here. Some results are limits rather than exact numbers.

As usually defined, the IC50 is the midpoint of a concentration-inhibition curve.

With `COc1ccc(S(=O)(=O)c2c3c4ccccc4n(C)c(-c4ccccc4)c-3c3ccccc23)cc1` [SIQ3], the “Cell viability of A431” value in the data set on A431 cells [1] is reported as “more susceptible”. Moreover, the concentration for half-maximal inhibition (IC50) with Vero cells is greater than 100 µM; in the data set with A431 cells [2] it was 17.7 ± 0.35 µM; in the data set with A549 cells (setting [3]), 33.5 ± 0.47 µM. The “EGFR-TK inhibitory activity (screening)” value at EGFR-TK is on record as “higher EGFR-TK inhibitory activity than erlotinib”. The “Cell viability of A549” value in the data set with A549 cells (72 h, MTT) is reported as “more vulnerable”.
With `Cn1c(-c2ccccc2)c2c3ccccc3c(S(=O)(=O)c3ccc(Cl)cc3)c-2c2ccccc21` [SIQ5], in the data set on A431 cells [1], the “Cell viability of A431” value is “more susceptible”. In addition, the IC50 was 8.06 ± 0.15 µM in the data set on Vero cells, 9.93 ± 0.45 µM in the data set with A431 cells [2] and 16.8 ± 0.41 µM in the data set on A549 cells (setting [3]). For the same molecule, the “EGFR-TK inhibitory activity (screening)” value on EGFR-TK is “higher EGFR-TK inhibitory activity than erlotinib”. Besides, the “Cell viability of A549” value in the data set with A549 cells (72 h, MTT) was “more vulnerable”.
With `Cc1ccc(S(=O)(=O)c2c3c4ccccc4n(C)c(-c4ccccc4)c-3c3ccccc23)c(C)c1` [SIQ8], the IC50 in the data set on Vero cells was determined as 21.7 ± 0.5 µM; in the data set on A431 cells [2], 14.1 ± 0.73 µM; in the data set on A549 cells (setting [3]) it was 27.2 ± 0.71 µM. Further, at EGFR-TK, the “EGFR-TK inhibitory activity (screening)” value is “higher EGFR-TK inhibitory activity than erlotinib”. Further, the “Cell viability of A549” value with A549 cells (72 h, MTT) was “more vulnerable”.
Take `Cc1ccc(-c2c3c4ccccc4c(S(=O)(=O)c4ccc(C)cc4)c-3c3ccccc3n2C)cc1` [SIQ10]: at EGFR-TK, the IC50 was determined as 0.0214 ± 0.00574 µM and the “EGFR-TK inhibitory activity (screening)” value was “higher EGFR-TK inhibitory activity than erlotinib”.
Regarding `COc1ccc(-c2c3c4ccccc4c(S(=O)(=O)c4ccc(C)cc4)c-3c3ccccc3n2C)cc1` [SIQ11], at EGFR-TK, half-maximal inhibition (IC50) was put at 0.0232 ± 0.00876 µM and the “EGFR-TK inhibitory activity (screening)” value was “higher EGFR-TK inhibitory activity than erlotinib”.
As for `Cc1ccc(S(=O)(=O)c2c3c4ccccc4n(C)c(-c4ccc(Cl)cc4)c-3c3ccccc23)cc1` [SIQ12], the “Cell viability of A431” value in the data set on A431 cells [1] was “more susceptible”. For the same molecule, the IC50 was 7.25 ± 0.12 µM in the data set with Vero cells, 13.1 ± 0.5 µM in the data set with A431 cells [2] and 23.2 ± 0.42 µM in the data set on A549 cells (setting [3]). The “EGFR-TK inhibitory activity (screening)” value on EGFR-TK is “higher EGFR-TK inhibitory activity than erlotinib”. Also, the “Cell viability of A549” value in the data set with A549 cells (72 h, MTT) is on record as “more vulnerable”.
As for `Cc1ccc(S(=O)(=O)c2c3c4ccccc4n(C)c(-c4ccc(C)cc4C)c-3c3ccccc23)cc1` [SIQ17], the IC50 is greater than 100 µM with Vero cells, 19.2 ± 0.97 µM with A431 cells [2] and 33 ± 0.59 µM with A549 cells (setting [3]). Moreover, on EGFR-TK, the “EGFR-TK inhibitory activity (screening)” value is recorded as “higher EGFR-TK inhibitory activity than erlotinib”. Also, in the data set with A549 cells (72 h, MTT), the “Cell viability of A549” value is on record as “more vulnerable”.
For the molecule `Cc1ccc(S(=O)(=O)c2c3c4cc(C)ccc4n(C)c(-c4ccccc4)c-3c3ccccc23)cc1` [SIQ19], the “Cell viability of A431” value in the data set with A431 cells [1] was “more susceptible”. In addition, the IC50 with Vero cells is 5.88 ± 0.33 µM; in the data set on A431 cells [2], 11.9 ± 0.41 µM; with A549 cells (setting [3]), 29.3 ± 0.44 µM. Besides, on EGFR-TK, the “EGFR-TK inhibitory activity (screening)” value is recorded as “higher EGFR-TK inhibitory activity than erlotinib”.
In the case of `C#Cc1cccc(Nc2ncnc3cc(OCCOC)c(OCCOC)cc23)c1` [erlotinib, reference compound], the IC50 in the data set on Vero cells is 35 ± 1.35 µM; with A549 cells (Homo sapiens, A549, 72 h, read-out: IC50 A549, MTT, 72 h) it was 33.3 µM; in the data set with A549 cells (read-out: IC50 A549, MTT, 72 h), 33.3 ± 1.88 µM.
